{"source": "paper PMC5218480", "about": "(PLoS ONE, 2017)", "test_system": "MV-4-11 cells", "assay": "Gene expression microarray analysis (Affymetrix PrimeView) and GSEA", "format": "cell-based, human", "set-up": "RFU PODN (11730768_x_at) / Fold change /veh PODN (11730768_x_at) / RFU LINC00158 (11744669_a_at) / Fold change /veh LINC00158 (11744669_a_at) / RFU DUSP10 (11751237_a_at) / Fold change /veh DUSP10 (11751237_a_at) / RFU ID3 (11757404_x_at) / Fold change /veh ID3 (11757404_x_at) / RFU PLEKHG5 (11737974_s_at) / Fold change /veh PLEKHG5 (11737974_s_at) / RFU LRRC4B (11730491_at) / Fold change /veh LRRC4B (11730491_at) / RFU GIMAP4 (11747438_a_at) / Fold change /veh GIMAP4 (11747438_a_at) / RFU KRT8 (11758183_x_at) / Fold change /veh KRT8 (11758183_x_at) / RFU CNN1 (11734310_a_at) / Fold change /veh CNN1 (11734310_a_at) / RFU VPS37D (11726825_at) / Fold change /veh VPS37D (11726825_at) / RFU C10orf10 (11716522_x_at) / Fold change /veh C10orf10 (11716522_x_at) / RFU KIR2DL2 /// KIR2DL4 /// KIR2DL5A /// KIR2DL5B /// KIR2DS1 /// KIR2DS2 /// KIR2DS3 /// KIR2DS4 /// KIR3DL3 /// KIR3DL3 /// KIR3DS1 (11738374_at) / Fold change /veh KIR2DL2 /// KIR2DL4 /// KIR2DL5A /// KIR2DL5B /// KIR2DS1 /// KIR2DS2 /// KIR2DS3 /// KIR2DS4 /// KIR3DL3 /// KIR3DL3 /// KIR3DS1 (11738374_at) / RFU C1QL1 (11718748_at) / Fold change /veh C1QL1 (11718748_at) / RFU TMPRSS4 (11747572_a_at) / Fold change /veh TMPRSS4 (11747572_a_at) / RFU HAMP (11756126_x_at) / Fold change /veh HAMP (11756126_x_at) / RFU RNFT2 (11725882_a_at) / Fold change /veh RNFT2 (11725882_a_at) / RFU NR4A2 (11747474_a_at) / Fold change /veh NR4A2 (11747474_a_at) / RFU ABCC12 (11746883_a_at) / Fold change /veh ABCC12 (11746883_a_at) / RFU TMEM136 (11760407_x_at) / Fold change /veh TMEM136 (11760407_x_at) / RFU CLDN22 /// WWC2 (11732394_at) / Fold change /veh CLDN22 /// WWC2 (11732394_at) / RFU HLA-DPB1 (11760878_x_at) / Fold change /veh HLA-DPB1 (11760878_x_at) / RFU SPINT1 (11716480_a_at) / Fold change /veh SPINT1 (11716480_a_at) / RFU GAP43 (11754022_s_at) / Fold change /veh GAP43 (11754022_s_at) / RFU A4GNT (11735810_at) / Fold change /veh A4GNT (11735810_at) / RFU PRB3 (11715151_x_at) / Fold change /veh PRB3 (11715151_x_at) / RFU TUBB4B (11761932_at) / Fold change /veh TUBB4B (11761932_at) / RFU CAPN14 (11732068_a_at) / Fold change /veh CAPN14 (11732068_a_at) / RFU TMCC2 (11721928_a_at) / Fold change /veh TMCC2 (11721928_a_at) / RFU IRGQ (11745062_a_at) / Fold change /veh IRGQ (11745062_a_at) / RFU FAM174B (11720279_a_at) / Fold change /veh FAM174B (11720279_a_at) / RFU TMPRSS4 (11748680_a_at) / Fold change /veh TMPRSS4 (11748680_a_at) / RFU FAM212B (11763350_a_at) / Fold change /veh FAM212B (11763350_a_at) / RFU PLEKHG5 (11743358_a_at) / Fold change /veh PLEKHG5 (11743358_a_at) / RFU ZSCAN30 (11745921_a_at) / Fold change /veh ZSCAN30 (11745921_a_at) / RFU CMKLR1 (11741424_a_at) / Fold change /veh CMKLR1 (11741424_a_at) / RFU LOC101060620 /// MAPK8IP1 (11723275_at) / Fold change /veh LOC101060620 /// MAPK8IP1 (11723275_at) / RFU SPTSSB (11747773_x_at) / Fold change /veh SPTSSB (11747773_x_at) / RFU PRSS12 (11739890_at) / Fold change /veh PRSS12 (11739890_at) / RFU BIN1 (11741810_x_at) / Fold change /veh BIN1 (11741810_x_at) / RFU WNT11 (11732464_a_at) / Fold change /veh WNT11 (11732464_a_at) / RFU C10orf10 (11716521_a_at) / Fold change /veh C10orf10 (11716521_a_at) / RFU C5orf56 (11738089_at) / Fold change /veh C5orf56 (11738089_at) / RFU CYB561 (11721691_x_at) / Fold change /veh CYB561 (11721691_x_at) / RFU ANKRD19P (11752326_a_at) / Fold change /veh ANKRD19P (11752326_a_at) / RFU OR2T12 /// OR2T33 /// OR2T8 (11738714_s_at) / Fold change /veh OR2T12 /// OR2T33 /// OR2T8 (11738714_s_at) / RFU VCAN (11748164_a_at) / Fold change /veh VCAN (11748164_a_at) / RFU JSRP1 (11732532_at) / Fold change /veh JSRP1 (11732532_at) / RFU KRTAP10-11 (11738290_x_at) / Fold change /veh KRTAP10-11 (11738290_x_at) / RFU MYO3A (11730013_a_at) / Fold change /veh MYO3A (11730013_a_at) / RFU EBF3 (11725865_a_at) / Fold change /veh EBF3 (11725865_a_at) / RFU CAMK2N1 (11719241_x_at) / Fold change /veh CAMK2N1 (11719241_x_at) / RFU C5orf56 (11738088_a_at) / Fold change /veh C5orf56 (11738088_a_at) / RFU OLFML3 (11715873_a_at) / Fold change /veh OLFML3 (11715873_a_at) / RFU LOC100653217 /// NTM (11731650_a_at) / Fold change /veh LOC100653217 /// NTM (11731650_a_at) / RFU MAPK11 (11762145_a_at) / Fold change /veh MAPK11 (11762145_a_at) / RFU FIZ1 (11724087_x_at) / Fold change /veh FIZ1 (11724087_x_at) / RFU OASL (11726364_x_at) / Fold change /veh OASL (11726364_x_at) / RFU SOX15 (11748057_x_at) / Fold change /veh SOX15 (11748057_x_at) / RFU CD79A (11719716_a_at) / Fold change /veh CD79A (11719716_a_at) / RFU HIST1H1D (11736915_at) / Fold change /veh HIST1H1D (11736915_at) / RFU CASKIN2 (11723855_a_at) / Fold change /veh CASKIN2 (11723855_a_at) / RFU LOC730098 (11760151_x_at) / Fold change /veh LOC730098 (11760151_x_at) / RFU OR4N2 (11742367_at) / Fold change /veh OR4N2 (11742367_at) / RFU PRRT2 (11749266_a_at) / Fold change /veh PRRT2 (11749266_a_at) / RFU SNX32 (11753110_a_at) / Fold change /veh SNX32 (11753110_a_at) / RFU CDHR5 (11726645_a_at) / Fold change /veh CDHR5 (11726645_a_at) / RFU RCAN1 (11760418_a_at) / Fold change /veh RCAN1 (11760418_a_at) / RFU FAM167A (11723789_a_at) / Fold change /veh FAM167A (11723789_a_at) / RFU FAM26E (11764081_at) / Fold change /veh FAM26E (11764081_at) / RFU ISYNA1 (11749810_s_at) / Fold change /veh ISYNA1 (11749810_s_at) / RFU ACY1 (11761880_at) / Fold change /veh ACY1 (11761880_at) / RFU 11764098_at / Fold change /veh 11764098_at / RFU SAMD14 (11745864_x_at) / Fold change /veh SAMD14 (11745864_x_at) / RFU NPB (11741838_a_at) / Fold change /veh NPB (11741838_a_at) / RFU TMPRSS6 (11731388_a_at) / Fold change /veh TMPRSS6 (11731388_a_at) / RFU KRTAP10-2 (11738614_at) / Fold change /veh KRTAP10-2 (11738614_at) / RFU ARHGAP8 /// PRR5-ARHGAP8 (11727945_x_at) / Fold change /veh ARHGAP8 /// PRR5-ARHGAP8 (11727945_x_at) / RFU KRTAP5-7 /// NADSYN1 (11734609_at) / Fold change /veh KRTAP5-7 /// NADSYN1 (11734609_at) / RFU RASL12 (11751679_a_at) / Fold change /veh RASL12 (11751679_a_at) / RFU CDKN2B (11736163_a_at) / Fold change /veh CDKN2B (11736163_a_at) / RFU PRF1 (11729649_at) / Fold change /veh PRF1 (11729649_at) / RFU, ZNF638 /// ZNF638-IT1 / Fold change vs veh, ZNF638 /// ZNF638-IT1 / RFU, PANK3 / Fold change vs veh, PANK3 / RFU, SH3YL1 / Fold change vs veh, SH3YL1 / RFU, ZEB2 / Fold change vs veh, ZEB2 / RFU, NRIP1 / Fold change vs veh, NRIP1 / RFU, PTTG1IP / Fold change vs veh, PTTG1IP / RFU, CAPN2 / Fold change vs veh, CAPN2 / RFU, MED14 / Fold change vs veh, MED14 / RFU, SNORA58 / Fold change vs veh, SNORA58 / RFU, C1orf63 / Fold change vs veh, C1orf63 / RFU, LRRFIP1 / Fold change vs veh, LRRFIP1 / RFU, NDUFAF7 / Fold change vs veh, NDUFAF7 / RFU, SLC12A2 / Fold change vs veh, SLC12A2 / RFU, IBTK / Fold change vs veh, IBTK / RFU, ESF1 / Fold change vs veh, ESF1 / Fold change vs veh, TMEM50B / RFU, TAOK1 / Fold change vs veh, TAOK1 / RFU, ACBD3 / Fold change vs veh, ACBD3 / RFU, TMA16 / Fold change vs veh, TMA16 / RFU, RWDD3 / Fold change vs veh, RWDD3 / RFU, BCAT1 / Fold change vs veh, BCAT1 / RFU, EDEM3 / Fold change vs veh, EDEM3 / RFU, TMEM33 / Fold change vs veh, TMEM33 / RFU, WDR75 / Fold change vs veh, WDR75 / RFU, AHCTF1 / Fold change vs veh, AHCTF1 / RFU, TFRC / Fold change vs veh, TFRC / RFU, ZDHHC17 / Fold change vs veh, ZDHHC17 / RFU, NOM1 / Fold change vs veh, NOM1 / RFU, ARL8B / Fold change vs veh, ARL8B / RFU, ZBTB11 / Fold change vs veh, ZBTB11 / RFU, TAMM41 / Fold change vs veh, TAMM41 / RFU, KIAA1704 /// LOC100996395 / Fold change vs veh, KIAA1704 /// LOC100996395 / RFU, ING1 / Fold change vs veh, ING1 / RFU, TRMT61B / Fold change vs veh, TRMT61B / RFU, FUBP3 / Fold change vs veh, FUBP3 / RFU, TP53 / Fold change vs veh, TP53 / RFU, TNKS2 / Fold change vs veh, TNKS2 / RFU, ZFP14 / Fold change vs veh, ZFP14 / RFU, ACTR2 / Fold change vs veh, ACTR2 / RFU, PPP3R1 / Fold change vs veh, PPP3R1 / RFU, PIK3R1 / Fold change vs veh, PIK3R1 / RFU, HNRNPA1 / Fold change vs veh, HNRNPA1 / RFU, RNF170 / Fold change vs veh, RNF170 / RFU, ZNF28 / Fold change vs veh, ZNF28 / RFU, RNGTT / Fold change vs veh, RNGTT / RFU, OGT / Fold change vs veh, OGT / RFU, BRD1 / Fold change vs veh, BRD1 / RFU, MARS / Fold change vs veh, MARS / RFU, ZNF655 / Fold change vs veh, ZNF655 / RFU, FAHD1 / Fold change vs veh, FAHD1 / RFU, BDP1 / Fold change vs veh, BDP1 / RFU, LRRCC1 / Fold change vs veh, LRRCC1 / RFU, ARID1A / Fold change vs veh, ARID1A / RFU, ZNF146 / Fold change vs veh, ZNF146 / RFU, ZNF330 / Fold change vs veh, ZNF330 / RFU, GPN3 / Fold change vs veh, GPN3 / RFU, C9orf123 / Fold change vs veh, C9orf123 / RFU, N4BP2L2 / Fold change vs veh, N4BP2L2 / RFU, ARFIP1 / Fold change vs veh, ARFIP1 / RFU, FAM179B / Fold change vs veh, FAM179B / RFU, BCL10 / Fold change vs veh, BCL10 / RFU, UHRF1BP1L / Fold change vs veh, UHRF1BP1L / RFU, BET1 / Fold change vs veh, BET1 / RFU, CNOT2 / Fold change vs veh, CNOT2 / RFU, ZNF268 / Fold change vs veh, ZNF268 / Fold change vs veh, ZNF507 / RFU, DGCR2 / Fold change vs veh, DGCR2 / RFU, WDSUB1 / Fold change vs veh, WDSUB1 / Fold change vs veh, HSP90B1 /// MIR3652 / RFU, ADSS / Fold change vs veh, ADSS / RFU, GK / Fold change vs veh, GK / RFU, ZNF148 / Fold change vs veh, ZNF148 / RFU, TAF9 / Fold change vs veh, TAF9 / RFU, SLC1A5 / Fold change vs veh, SLC1A5 / RFU, SLMO2 / Fold change vs veh, SLMO2 / RFU, ABCC4 / Fold change vs veh, ABCC4 / RFU, LOC101060439 /// RAP1B / Fold change vs veh, LOC101060439 /// RAP1B / RFU, RFX7 / Fold change vs veh, RFX7 / RFU, GTPBP10 / Fold change vs veh, GTPBP10 / RFU, CNEP1R1 / Fold change vs veh, CNEP1R1 / RFU, BIVM-ERCC5 /// ERCC5 / Fold change vs veh, BIVM-ERCC5 /// ERCC5 / RFU, ILF3 / Fold change vs veh, ILF3 / RFU 11762660_at / Fold change /veh 11762660_at / RFU VCAN (11757783_s_at) / Fold change /veh VCAN (11757783_s_at) / RFU DDX43 (11728927_at) / Fold change /veh DDX43 (11728927_at) / RFU KRT8 (11758188_x_at) / Fold change /veh KRT8 (11758188_x_at) / RFU NKD1 (11759106_at) / Fold change /veh NKD1 (11759106_at) / RFU SRD5A1 (11742802_a_at) / Fold change /veh SRD5A1 (11742802_a_at) / RFU TPSAB1 /// TPSB2 (11721975_s_at) / Fold change /veh TPSAB1 /// TPSB2 (11721975_s_at) / RFU GSTM3 (11746129_a_at) / Fold change /veh GSTM3 (11746129_a_at) / RFU IL23R (11737362_x_at) / Fold change /veh IL23R (11737362_x_at) / RFU TMEM51 (11727254_a_at) / Fold change /veh TMEM51 (11727254_a_at) / RFU PIWIL2 (11732686_x_at) / Fold change /veh PIWIL2 (11732686_x_at) / RFU ORM1 (11744905_x_at) / Fold change /veh ORM1 (11744905_x_at) / RFU CCDC152 (11743942_at) / Fold change /veh CCDC152 (11743942_at) / RFU ECM1 (11717891_a_at) / Fold change /veh ECM1 (11717891_a_at) / RFU IL23R (11748794_a_at) / Fold change /veh IL23R (11748794_a_at) / RFU TNFAIP8L3 (11732012_x_at) / Fold change /veh TNFAIP8L3 (11732012_x_at) / RFU MBOAT4 (11741988_at) / Fold change /veh MBOAT4 (11741988_at) / RFU 11764193_at / Fold change /veh 11764193_at / RFU TMEM53 (11763286_at) / Fold change /veh TMEM53 (11763286_at) / RFU MAGEB2 (11727129_at) / Fold change /veh MAGEB2 (11727129_at) / RFU TMEM200A (11744735_a_at) / Fold change /veh TMEM200A (11744735_a_at) / RFU CCDC152 (11751479_a_at) / Fold change /veh CCDC152 (11751479_a_at) / RFU FAM211A (11726209_a_at) / Fold change /veh FAM211A (11726209_a_at) / RFU RGS16 (11746705_a_at) / Fold change /veh RGS16 (11746705_a_at) / RFU VCAN (11755009_s_at) / Fold change /veh VCAN (11755009_s_at) / RFU RHOB (11743442_s_at) / Fold change /veh RHOB (11743442_s_at) / RFU RGS16 (11720943_a_at) / Fold change /veh RGS16 (11720943_a_at) / RFU RGS16 (11720944_at) / Fold change /veh RGS16 (11720944_at) / RFU, VPS4B / Fold change vs veh, VPS4B / RFU, CREB1 / Fold change vs veh, CREB1 / RFU, DNAJC13 / Fold change vs veh, DNAJC13 / RFU, GNAQ / Fold change vs veh, GNAQ / RFU, CDK5R1 / Fold change vs veh, CDK5R1 / RFU, ZRANB3 / Fold change vs veh, ZRANB3 / RFU, CUL4A / Fold change vs veh, CUL4A / RFU, CCNY / Fold change vs veh, CCNY / RFU, UFL1 / Fold change vs veh, UFL1 / RFU, COG3 / Fold change vs veh, COG3 / RFU, DIAPH2 / Fold change vs veh, DIAPH2 / RFU, SKA2 / Fold change vs veh, SKA2 / RFU, AFF3 / Fold change vs veh, AFF3 / RFU, LMF1 / Fold change vs veh, LMF1 / RFU, IPO11 / Fold change vs veh, IPO11 / RFU, DFFB / Fold change vs veh, DFFB / RFU, FOXP1 / Fold change vs veh, FOXP1 / RFU, CARD8 / Fold change vs veh, CARD8 / RFU, STRN3 / Fold change vs veh, STRN3 / RFU, ADK / Fold change vs veh, ADK / RFU, RASSF2 / Fold change vs veh, RASSF2 / RFU, WIPF1 / Fold change vs veh, WIPF1 / RFU, LARP1B / Fold change vs veh, LARP1B / RFU, RASA1 / Fold change vs veh, RASA1 / RFU, RB1 / Fold change vs veh, RB1 / RFU, PPFIA1 / Fold change vs veh, PPFIA1 / RFU, MAT2A / Fold change vs veh, MAT2A / RFU, CCT5 / Fold change vs veh, CCT5 / RFU, WDR92 / Fold change vs veh, WDR92 / RFU, CUX1 / Fold change vs veh, CUX1 / RFU, TTC7A / Fold change vs veh, TTC7A / RFU, TMEM135 / Fold change vs veh, TMEM135 / RFU, DEPTOR / Fold change vs veh, DEPTOR / RFU, CPM / Fold change vs veh, CPM / RFU, DNAJB6 / Fold change vs veh, DNAJB6 / RFU, CACNA2D3 / Fold change vs veh, CACNA2D3 / RFU, DTX4 / Fold change vs veh, DTX4 / RFU, TFCP2 / Fold change vs veh, TFCP2 / RFU, GMCL1 /// GMCL1P1 / Fold change vs veh, GMCL1 /// GMCL1P1 / RFU, AEBP2 / Fold change vs veh, AEBP2 / RFU, SNHG1 /// SNORD22 /// SNORD25 /// SNORD26 /// SNORD27 /// SNORD28 /// SNORD29 /// SNORD31 / Fold change vs veh, SNHG1 /// SNORD22 /// SNORD25 /// SNORD26 /// SNORD27 /// SNORD28 /// SNORD29 /// SNORD31 / Fold change (Aza/veh), C12orf56 (ProbeSet 11735607_a_at) / Fold change (ACY-1035/veh), C12orf56 (ProbeSet 11735607_a_at) / Fold change (Aza/veh), FGFR1OP (ProbeSet 11751329_s_at) / Fold change (ACY-1035/veh), FGFR1OP (ProbeSet 11751329_s_at) / Fold change (Aza/veh), VPS36 (ProbeSet 11739960_a_at) / Fold change (ACY-1035/veh), VPS36 (ProbeSet 11739960_a_at) / RFU SYPL1 (11715823_x_at) / Fold change /veh SYPL1 (11715823_x_at) / RFU IGFBP7 (11715501_s_at) / Fold change /veh IGFBP7 (11715501_s_at) / RFU REEP3 (11722064_at) / Fold change /veh REEP3 (11722064_at) / RFU IGLL1 (11728026_x_at) / Fold change /veh IGLL1 (11728026_x_at): dose or concentration left out as unconfirmed", "conditions": "MV-4-11 cells, 48 hours"}
{"smiles": "Nc1ccc(-c2cccs2)cc1NC(=O)c1ccc2c(c1)cc(C1CC1)n2CCN1CCOCC1", "note": "[ACY-1035]", "values": [{"measurement": "RFU KIR2DL2 /// KIR2DL4 /// KIR2DL5A /// KIR2DL5B /// KIR2DS1 /// KIR2DS2 /// KIR2DS3 /// KIR2DS4 /// KIR3DL3 /// KIR3DL3 /// KIR3DS1 (11738374_at)", "result": 11.07, "unit": "RFU"}]}
